Tests used:
Assay in all cases: relative viability (nuclei count vs DMSO), 5 days (fraction); higher = more cells survive
PC-14 = system: PC-14
In short: (§1)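 One day after seeding in 1536-well plates, lung cancer cell lines were dosed by pin tool. Dosing was either single-drug or a fixed anchor-drug dose plus five library-drug doses (not always all listed) in √10 steps. After 5 days, nuclei were stained in one fix-and-stain step and counted on 4× images, and relative viability is the nuclei count of treated wells over that of vehicle wells, given as the median of duplicate plates.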

NCI-H2085 = system: NCI-H2085
In short: as §1

NCI-H322M = system: NCI-H322M
In short: as §1

NCI-H647 = system: NCI-H647
In short: as §1

NCI-H2087 = system: NCI-H2087
In short: as §1

NCI-H1944 = system: NCI-H1944
In short: as §1

LOU-NH91 = system: LOU-NH91
In short: as §1

NCI-H1648 = system: NCI-H1648
In short: as §1

ABC-1 = system: ABC-1
In short: as §1

201T = system: 201T
In short: as §1

NCI-H596 = system: NCI-H596
In short: as §1

HCC-44 = system: HCC-44
In short: as §1

NCI-H2170 = system: NCI-H2170
In short: as §1

PC-3 [JPC-3] = system: PC-3 [JPC-3]
In short: as §1

NCI-H2023 = system: NCI-H2023
In short: as §1

NCI-H1437 = system: NCI-H1437
In short: as §1

NCI-H1734 = system: NCI-H1734
In short: as §1

LK-2 = system: LK-2
In short: as §1

HCC-78 = system: HCC-78
In short: as §1

NCI-H2228 = system: NCI-H2228
In short: as §1

SK-LU-1 = system: SK-LU-1
In short: as §1

NCI-H1651 = system: NCI-H1651
In short: as §1

HCC-366 = system: HCC-366
In short: as §1

Q: Which relative viability (PC-14; first compound 0.253 µM) does the source give for `Nc1cccc2c1CN(C1CCC(=O)NC1=O)C2=O` (stereo not given) [Lenalidomide] + COc1cccc2cc(-c3nc([C@H]4CC[C@H](C(=O)O)CC4)n4ncnc(N)c34)[nH]c12 [OSI-027] (partner 0.5 µM) here?
A: The relative viability was 0.791.

Q: What about the relative viability (PC-14; first compound 0.8 µM) of the same molecule?
A: The relative viability was 0.853.

Q: And the relative viability (PC-14; first compound 2.53 µM)?
A: The relative viability was 1.2.

Q: And the relative viability (PC-14; first compound 8 µM)?
A: The relative viability was 1.02.

Q: What about the relative viability (NCI-H2085; first compound 0.253 µM) of the same molecule?
A: The relative viability was 0.818.

Q: And the relative viability (NCI-H2085; first compound 0.8 µM)?
A: Its relative viability is 0.518.

Q: And the relative viability (NCI-H2085; first compound 2.53 µM)?
A: The relative viability was 0.879.

Q: And the relative viability (NCI-H2085; first compound 8 µM)?
A: Its relative viability is 0.784.

Q: What about the relative viability (NCI-H322M; first compound 0.253 µM) of the same molecule?
A: The relative viability was 0.53.

Q: What about the relative viability (NCI-H322M; first compound 0.8 µM) of the same molecule?
A: Its relative viability is 0.527.

Q: And the relative viability (NCI-H322M; first compound 2.53 µM)?
A: Its relative viability is 0.609.

Q: And the relative viability (NCI-H322M; first compound 8 µM)?
A: Its relative viability is 0.558.

Q: What about the relative viability (NCI-H647; first compound 0.253 µM) of the same molecule?
A: Its relative viability is 0.587.

Q: And the relative viability (NCI-H647; first compound 0.8 µM)?
A: Its relative viability is 0.551.

Q: And the relative viability (NCI-H647; first compound 2.53 µM)?
A: The relative viability was 1.02.

Q: And the relative viability (NCI-H647; first compound 8 µM)?
A: Its relative viability is 0.744.

Q: What about the relative viability (NCI-H2087; first compound 0.253 µM) of the same molecule?
A: The relative viability was 0.679.

Q: And the relative viability (NCI-H2087; first compound 0.8 µM)?
A: The relative viability was 0.501.

Q: And the relative viability (NCI-H2087; first compound 2.53 µM)?
A: Its relative viability is 0.521.

Q: What about the relative viability (NCI-H2087; first compound 8 µM) of the same molecule?
A: The relative viability was 0.712.

Q: And the relative viability (NCI-H1944; first compound 0.253 µM)?
A: The relative viability was 0.412.

Q: And the relative viability (NCI-H1944; first compound 0.8 µM)?
A: The relative viability was 0.372.

Q: What about the relative viability (NCI-H1944; first compound 2.53 µM) of the same molecule?
A: The relative viability was 0.491.

Q: And the relative viability (NCI-H1944; first compound 8 µM)?
A: Its relative viability is 0.36.

Q: What about the relative viability (LOU-NH91; first compound 0.253 µM) of the same molecule?
A: The relative viability was 0.769.

Q: And the relative viability (LOU-NH91; first compound 0.8 µM)?
A: The relative viability was 0.699.

Q: What about the relative viability (LOU-NH91; first compound 2.53 µM) of the same molecule?
A: The relative viability was 0.703.

Q: What about the relative viability (LOU-NH91; first compound 8 µM) of the same molecule?
A: The relative viability was 0.664.

Q: What about the relative viability (NCI-H1648; first compound 0.253 µM) of the same molecule?
A: The relative viability was 0.272.

Q: And the relative viability (NCI-H1648; first compound 0.8 µM)?
A: Its relative viability is 0.22.

Q: What about the relative viability (NCI-H1648; first compound 2.53 µM) of the same molecule?
A: The relative viability was 0.253.

Q: What about the relative viability (NCI-H1648; first compound 8 µM) of the same molecule?
A: Its relative viability is 0.227.

Q: What about the relative viability (ABC-1; first compound 0.253 µM) of the same molecule?
A: The relative viability was 0.453.

Q: And the relative viability (ABC-1; first compound 0.8 µM)?
A: The relative viability was 0.489.

Q: And the relative viability (ABC-1; first compound 2.53 µM)?
A: Its relative viability is 0.533.

Q: And the relative viability (ABC-1; first compound 8 µM)?
A: Its relative viability is 0.481.

Q: And the relative viability (201T; first compound 0.253 µM)?
A: The relative viability was 0.767.

Q: And the relative viability (201T; first compound 0.8 µM)?
A: Its relative viability is 0.494.

Q: And the relative viability (201T; first compound 2.53 µM)?
A: Its relative viability is 0.799.

Q: What about the relative viability (201T; first compound 8 µM) of the same molecule?
A: The relative viability was 0.791.

Q: What about the relative viability (NCI-H596; first compound 0.253 µM) of the same molecule?
A: The relative viability was 0.784.

Q: What about the relative viability (NCI-H596; first compound 2.53 µM) of the same molecule?
A: Its relative viability is 0.764.

Q: What about the relative viability (NCI-H596; first compound 8 µM) of the same molecule?
A: Its relative viability is 0.532.

Q: What about the relative viability (HCC-44; first compound 0.253 µM) of the same molecule?
A: Its relative viability is 0.636.

Q: What about the relative viability (HCC-44; first compound 2.53 µM) of the same molecule?
A: The relative viability was 0.535.

Q: And the relative viability (HCC-44; first compound 8 µM)?
A: Its relative viability is 0.512.

Q: What about the relative viability (NCI-H2170; first compound 0.253 µM) of the same molecule?
A: Its relative viability is 0.691.

Q: What about the relative viability (NCI-H2170; first compound 0.8 µM) of the same molecule?
A: Its relative viability is 0.612.

Q: What about the relative viability (NCI-H2170; first compound 2.53 µM) of the same molecule?
A: The relative viability was 0.817.

Q: And the relative viability (NCI-H2170; first compound 8 µM)?
A: Its relative viability is 0.588.

Q: What about the relative viability (PC-3 [JPC-3]; first compound 0.253 µM) of the same molecule?
A: Its relative viability is 0.832.

Q: What about the relative viability (PC-3 [JPC-3]; first compound 0.8 µM) of the same molecule?
A: Its relative viability is 0.569.

Q: What about the relative viability (PC-3 [JPC-3]; first compound 2.53 µM) of the same molecule?
A: The relative viability was 0.769.

Q: And the relative viability (PC-3 [JPC-3]; first compound 8 µM)?
A: Its relative viability is 0.818.

Q: What about the relative viability (NCI-H2023; first compound 0.253 µM) of the same molecule?
A: Its relative viability is 0.418.

Q: And the relative viability (NCI-H2023; first compound 0.8 µM)?
A: Its relative viability is 0.337.

Q: What about the relative viability (NCI-H2023; first compound 2.53 µM) of the same molecule?
A: The relative viability was 0.545.

Q: What about the relative viability (NCI-H2023; first compound 8 µM) of the same molecule?
A: The relative viability was 0.451.

Q: What about the relative viability (NCI-H1437; first compound 0.253 µM) of the same molecule?
A: The relative viability was 0.888.

Q: What about the relative viability (NCI-H1437; first compound 0.8 µM) of the same molecule?
A: The relative viability was 1.11.

Q: What about the relative viability (NCI-H1437; first compound 2.53 µM) of the same molecule?
A: Its relative viability is 0.993.

Q: And the relative viability (NCI-H1437; first compound 8 µM)?
A: The relative viability was 0.956.

Q: What about the relative viability (NCI-H1734; first compound 0.253 µM) of the same molecule?
A: The relative viability was 0.63.

Q: And the relative viability (NCI-H1734; first compound 0.8 µM)?
A: The relative viability was 0.712.

Q: What about the relative viability (NCI-H1734; first compound 2.53 µM) of the same molecule?
A: Its relative viability is 0.566.

Q: What about the relative viability (NCI-H1734; first compound 8 µM) of the same molecule?
A: Its relative viability is 0.608.

Q: What about the relative viability (LK-2; first compound 0.253 µM) of the same molecule?
A: The relative viability was 0.215.

Q: What about the relative viability (LK-2; first compound 0.8 µM) of the same molecule?
A: The relative viability was 0.19.

Q: And the relative viability (LK-2; first compound 2.53 µM)?
A: Its relative viability is 0.191.

Q: And the relative viability (LK-2; first compound 8 µM)?
A: The relative viability was 0.182.

Q: What about the relative viability (HCC-78; first compound 0.253 µM) of the same molecule?
A: The relative viability was 0.418.

Q: And the relative viability (HCC-78; first compound 0.8 µM)?
A: The relative viability was 0.35.

Q: And the relative viability (HCC-78; first compound 2.53 µM)?
A: Its relative viability is 0.376.

Q: What about the relative viability (HCC-78; first compound 8 µM) of the same molecule?
A: The relative viability was 0.382.

Q: What about the relative viability (NCI-H2228; first compound 0.253 µM) of the same molecule?
A: The relative viability was 0.568.

Q: What about the relative viability (NCI-H2228; first compound 0.8 µM) of the same molecule?
A: Its relative viability is 0.641.

Q: What about the relative viability (NCI-H2228; first compound 2.53 µM) of the same molecule?
A: Its relative viability is 0.672.

Q: What about the relative viability (NCI-H2228; first compound 8 µM) of the same molecule?
A: The relative viability was 0.473.

Q: And the relative viability (SK-LU-1; first compound 0.253 µM)?
A: The relative viability was 0.313.

Q: What about the relative viability (SK-LU-1; first compound 0.8 µM) of the same molecule?
A: Its relative viability is 0.361.

Q: What about the relative viability (SK-LU-1; first compound 2.53 µM) of the same molecule?
A: Its relative viability is 0.36.

Q: And the relative viability (SK-LU-1; first compound 8 µM)?
A: The relative viability was 0.421.

Q: What about the relative viability (NCI-H1651; first compound 0.253 µM) of the same molecule?
A: The relative viability was 0.772.

Q: What about the relative viability (NCI-H1651; first compound 0.8 µM) of the same molecule?
A: The relative viability was 0.728.

Q: And the relative viability (NCI-H1651; first compound 2.53 µM)?
A: Its relative viability is 0.994.

Q: And the relative viability (NCI-H1651; first compound 8 µM)?
A: The relative viability was 0.919.

Q: And the relative viability (HCC-366; first compound 0.253 µM)?
A: Its relative viability is 1.02.

Q: What about the relative viability (HCC-366; first compound 0.8 µM) of the same molecule?
A: Its relative viability is 0.709.

Q: What about the relative viability (HCC-366; first compound 2.53 µM) of the same molecule?
A: The relative viability was 1.01.

Q: And the relative viability (HCC-366; first compound 8 µM)?
A: The relative viability was 0.747.

From the supplement of paper PMC10307832
